SMILES strings stand for the structures.

One data set addresses α1β3γ2 BzR/GABA(A). Conditions: Figure 1; LTK cells; read-out: Binding affinity α1; cited from earlier work.
For another data set, the target named is α2β3γ2 BzR/GABA(A). The note with it: Figure 1; LTK cells; read-out: Binding affinity α2; cited from earlier work.
A further data set relates to C57BL/6J mice. Format: in vivo. The text has this: Figure 3 XLi-093 (4) effects on cognition enhancement by Wenger et al. (data on statistical significance not shown, unpublished results). Effects of 4 on cognition from the mean delay achieved by C57BL/6J mice titrating delayed matching-to-position schedule.
The next data set concerns the target α6β3γ2 GABAA/BzR (Homo sapiens, UniProt P18507+Q16445). In words: Competition binding to HEK cell membranes, α6β3γ2. Details: expressed in transfected cells. Conditions: Ki α6.
For another data set, the system named is NMDA. In words: PDSP receptor binding, NMDA. The note with it: PDSP primary screen at 10 µM.
A further data set concerns the target T1, α2B (Homo sapiens, UniProt P18089).
T1 construct: purchased NIMH PDSP (Psychoactive Drug Screening Program, Roth lab, Case Western Reserve)
In words: PDSP receptor binding, α2B. The note with it: PDSP primary screen at 10 µM.

For the next data set, the target named is T2, α2A (Homo sapiens, UniProt P08913).
T2 construct: purchased NIMH PDSP (Psychoactive Drug Screening Program, Roth lab, Case Western Reserve)
As to the kind of experiment: PDSP receptor binding, α2A. Conditions: PDSP primary screen at 10 µM.

For another data set, the target named is T3, Beta1 (Homo sapiens, UniProt P08588).
T3 construct: purchased NIMH PDSP (Psychoactive Drug Screening Program, Roth lab, Case Western Reserve)
As to the kind of experiment: PDSP receptor binding, Beta1. The note with it: PDSP primary screen at 10 µM.

A further data set deals with T4, 5ht6 (Homo sapiens, UniProt P50406).
T4 construct: purchased NIMH PDSP (Psychoactive Drug Screening Program, Roth lab, Case Western Reserve)
In words: PDSP receptor binding, 5ht6. The note with it: PDSP primary screen at 10 µM.

Another data set addresses α2β3γ2 GABAA/BzR (Homo sapiens, UniProt P18507+P47869). As to the kind of experiment: Competition binding to HEK cell membranes, α2β3γ2. The note with it: Ki α2. Details: expressed in transfected cells.
Another data set concerns the target T5, α2C (Homo sapiens, UniProt P18825).
T5 construct: purchased NIMH PDSP (Psychoactive Drug Screening Program, Roth lab, Case Western Reserve)
As to the kind of experiment: PDSP receptor binding, α2C. The note with it: PDSP primary screen at 10 µM.

Data set [1] deals with Bz BS of GABA(A) receptors. Conditions: Supplement Table 1; cited from earlier work.
For another data set, the target named is KOR (Homo sapiens, UniProt P41145). In words: PDSP receptor binding, KOR. The note with it: Case Western Reserve University, read-out: KOR Ki (secondary binding).
For the next data set, the target named is T6, α4β3γ2 GABAA/BzR (Homo sapiens, UniProt P18507+P48169).
T6 construct: expressed in transfected cells; host or cells: LTK cells (given for XLi-093 only)
In words: biochemical. Format: binding.

A further data set concerns the target T7, 5ht2b (Homo sapiens, UniProt P41595).
T7 construct: purchased NIMH PDSP (Psychoactive Drug Screening Program, Roth lab, Case Western Reserve)
As to the kind of experiment: PDSP receptor binding, 5ht2b. The note with it: PDSP primary screen at 10 µM.

A further data set addresses T8, NET (Homo sapiens, UniProt P23975).
T8 construct: purchased NIMH PDSP (Psychoactive Drug Screening Program, Roth lab, Case Western Reserve)
As to the kind of experiment: PDSP receptor binding, NET. The note with it: PDSP primary screen at 10 µM.

The next data set concerns the target T9, M3 (Homo sapiens, UniProt P20309).
T9 construct: purchased NIMH PDSP (Psychoactive Drug Screening Program, Roth lab, Case Western Reserve)
In words: PDSP receptor binding, M3. The note with it: PDSP primary screen at 10 µM.

Another data set has as its target T10, H4 (Homo sapiens, UniProt Q9H3N8).
T10 construct: purchased NIMH PDSP (Psychoactive Drug Screening Program, Roth lab, Case Western Reserve)
In words: PDSP receptor binding, H4. The note with it: PDSP primary screen at 10 µM.

A further data set concerns the target T11, M4 (Homo sapiens, UniProt P08173).
T11 construct: purchased NIMH PDSP (Psychoactive Drug Screening Program, Roth lab, Case Western Reserve)
In words: PDSP receptor binding, M4. Conditions: PDSP primary screen at 10 µM.

The next data set concerns the target T12, Beta2 (Homo sapiens, UniProt P07550).
T12 construct: purchased NIMH PDSP (Psychoactive Drug Screening Program, Roth lab, Case Western Reserve)
In words: PDSP receptor binding, Beta2. The note with it: PDSP primary screen at 10 µM.

The target in another data set is T13, σ1 (Homo sapiens, UniProt Q99720).
T13 construct: purchased NIMH PDSP (Psychoactive Drug Screening Program, Roth lab, Case Western Reserve)
As to the kind of experiment: PDSP receptor binding, σ1. Conditions: PDSP primary screen at 10 µM.

The next data set deals with α4β3γ2 BzR/GABA(A). Conditions: Figure 1; LTK cells; read-out: Binding affinity α4; cited from earlier work.
The next data set deals with T14, 5ht7 (Homo sapiens, UniProt P34969).
T14 construct: purchased NIMH PDSP (Psychoactive Drug Screening Program, Roth lab, Case Western Reserve)
As to the kind of experiment: PDSP receptor binding, 5ht7. Conditions: PDSP primary screen at 10 µM.

As for `C#Cc1ccc2c(c1)C(=O)N(C)Cc1c(C(=O)OCCCOC(=O)c3ncn4c3CN(C)C(=O)c3cc(C#C)ccc3-4)ncn1-2` [XLi-093 (4), 1,3-Bis(8-acetyleno-5,6-dihydro-5-methyl-6-oxo-4H-imidazo[1,5a][1,4]benzodiazepine-3-carboxy) propyl diester], the Ki at α1β3γ2 BzR/GABA(A) is above 1000 nM; at α2β3γ2 BzR/GABA(A) it was above 1000 nM; on α6β3γ2 GABAA/BzR, above 2000 nM; on α2β3γ2 GABAA/BzR, above 1000 nM; on KOR it was 2020 nM; at α4β3γ2 GABAA/BzR it was 1550 nM. Moreover, on α4β3γ2 BzR/GABA(A), the Ki was 1550 nM. Also, the “performance (mean delay achieved)” value in the data set with C57BL/6J mice (C57BL/6J mice, preliminary data, unpublished results (Wenger et al.)) was “enhances performance”. In addition, the “crossing of the blood brain barrier” value in the data set on C57BL/6J mice (inferred from the cognition effect in mice) is “does cross the blood brain barrier”. For the same compound, in the data set with NMDA, the NMDA binding entry is “∗ (“∗” indicates “primary missed” (<50% inhibition at 10 µM))”. Also, on α2B, the α2B binding entry was “∗ (“∗” indicates “primary missed” (<50% inhibition at 10 µM))”. Besides, on α2A, the α2A binding entry is on record as “∗ (“∗” indicates “primary missed” (<50% inhibition at 10 µM))”. Also, the Beta1 binding entry on Beta1 was “∗ (“∗” indicates “primary missed” (<50% inhibition at 10 µM))”. For the same compound, the 5ht6 binding result on 5ht6 is given as “∗ (“∗” indicates “primary missed” (<50% inhibition at 10 µM))”. The α2C binding result at α2C was “∗ (“∗” indicates “primary missed” (<50% inhibition at 10 µM))”. Further, the modulation entry in [1] is recorded as “antagonist”. Further, at 5ht2b, the 5ht2b binding result is “∗ (“∗” indicates “primary missed” (<50% inhibition at 10 µM))”. For the same compound, at NET, the NET binding result is on record as “∗ (“∗” indicates “primary missed” (<50% inhibition at 10 µM))”. For the same compound, the M3 binding result on M3 is “∗ (“∗” indicates “primary missed” (<50% inhibition at 10 µM))”. The H4 binding entry on H4 was “∗ (“∗” indicates “primary missed” (<50% inhibition at 10 µM))”. In addition, the M4 binding entry on M4 is listed as “∗ (“∗” indicates “primary missed” (<50% inhibition at 10 µM))”. Further, the Beta2 binding result at Beta2 was “∗ (“∗” indicates “primary missed” (<50% inhibition at 10 µM))”. For the same compound, at σ1, the σ1 binding entry is on record as “∗ (“∗” indicates “primary missed” (<50% inhibition at 10 µM))”. In addition, the 5ht7 binding entry on 5ht7 is “∗ (“∗” indicates “primary missed” (<50% inhibition at 10 µM))”.

These data come from PMC4657098, “A Review of the Updated Pharmacophore for the Alpha 5 GABA(A) Benzodiazepine Receptor Model” (International Journal of Medicinal Chemistry, 2015).
